Laboratory results published in patent US20250031744A1, “Methods and Compositions for Managing Blood Glucose Levels Using Rare Sugars” (DiaVita Therapeutics LLC, priority 2023, published 2025).

Assays:
[1] = test system: subject with type 1 diabetes; assay: Pilot open-label observational study with continuous glucose monitoring, treatment three times per day before meals (Example 1); format: in vivo, human; conditions: 7.5 g tagatose prior to meals without allulose or ginger
Method: Example 1. A pilot, open-label observational study was conducted on a subject with type 1 diabetes. The subject used a Dexcom® continuous glucose monitoring system which recorded blood sugar levels every five minutes. The subject first completed an extensive control period for roughly two months to obtain background blood sugar levels.
Subsequently, the subject was administered numerous treatment protocols separated by washout periods of at least 7 days (typically two weeks). […] The subject completed treatments with the following active ingredients: (i) Experimental Treatment 1: tagatose plus allulose plus ginger, (ii) Experimental Treatment 2: tagatose plus ginger, (iii) Experimental Treatment 3: allulose plus ginger, and (iv) Experimental Treatment 4: a second treatment course comprising tagatose plus allulose plus ginger. […]
Blood sugar levels were recorded every five minutes using the continuous glucose monitoring system. Primary endpoints were (i) average blood sugar level over the course of treatment, (ii) number of five minute periods with blood sugar level over 180 mg/dL (“time with high blood sugar”) and (iii) “hyperglycemia index”, calculated as the fraction of time with blood sugar level over 250 mg/dL multiplied by the average magnitude of the these hyperglycemic periods (defined as the difference in mg/dL between the recorded blood sugar level and 250). […]

subjects = assay: Experimental treatment with tagatose alone, gastrointestinal side effects; format: in vivo, human; conditions: no co-administration of allulose or ginger; treatment stopped after a couple of days
Text: Both tagatose and allulose can give rise to significant gastrointestinal side effects (e.g., bloating, flatulence, abdominal pain, diarrhea). In our personal experience and anecdotally, the GI side effects are more significant for tagatose than allulose.

O=C(CO)[C@@H](O)[C@@H](O)[C@H](O)CO [tagatose]
reason treatment was not completed [1]: GI discomfort | GI side effects of tagatose alone (subjects): unpleasant GI side effects reported by a majority of subjects
